Test results as given in patent US7700832B2 (priority 2006, dated 2010).
Entries after “also recorded” stand apart in the source; their conditions may differ. Like-named read-outs stand apart in the source and are kept apart here.

How the values were obtained:
Type in all cases: cell-based
[1] = system: Fusarium graminearum (FGR); conditions: for antifungal activity against FGR: polypeptide, standard plate assay, 4,000 spores per mL, ¼× potato dextrose broth, 28° C., 24 to 48 hours, scored with inverted microscope
Diplodia maydis (DMA) = conditions: polypeptide, standard plate assay, 6,000 spores per mL, ¼× potato dextrose broth, 28° C., 24 to 48 hours, scored with inverted microscope
[2] = system: Fusarium verticillioides (FVE)
[3] = system: Colletotrichum graminicola (CGR); conditions: polypeptide, standard plate assay, 4,000 spores per mL, ¼× Czapec-Dox V8, 28° C., 24 to 48 hours, scored with inverted microscope

## SEQ ID NO:1: mature antifungal polypeptide LB-09812, 33 amino acids, from Penicillium glandicola fermentation broth; also expressed in E. coli and HPLC-purified (ALHNSCSHPRCFNHAHCLTYSHCHVCSSRKRCL; PEPTIDE (1)...(33) Predicted mature LB-09812 peptide; listed as Penicillium glandicola)
[1]; dried HPLC fractions, 4,000 spores/mL in ¼× potato dextrose broth, 27° C. for 24 hours
  antifungal activity against FGR (HPLC fraction screen): found to have activity
[1]
  antifungal activity against FGR: display antifungal activity
[1]; listed as SEQ ID NO: 1
  antifungal activity against FGR: exhibited antifungal activity
Diplodia maydis (DMA)
  antifungal activity against DMA: display antifungal activity
Diplodia maydis (DMA); listed as SEQ ID NO: 1
  antifungal activity against DMA: exhibited antifungal activity
[2]
  antifungal activity against FVE: exhibited antifungal activity; also recorded: display antifungal activity
[3]
  antifungal activity against CGR: display antifungal activity
[3]; listed as SEQ ID NO: 1
  antifungal activity against CGR: exhibited antifungal activity

## SEQ ID NO:3: mature antifungal polypeptide LB-12922 isolated from Penicillium citreonigrum fermentation broth (LSCYPSCMQNYCSHPRCFLHATCLSYSHCHVCGTRKVCL; PEPTIDE (1)...(39) Predicted mature LB-12922 peptide; listed as Penicillium citreonigrum)
[1]
  antifungal activity against FGR: display antifungal activity
Diplodia maydis (DMA)
  antifungal activity against DMA: display antifungal activity
[2]
  antifungal activity against FVE: display antifungal activity
  antifungal activity against FVE (HPLC fraction screen): found to have activity
[3]
  antifungal activity against CGR: display antifungal activity
